Measurements reported in article PMC6839174, “Targeting the Formyl Peptide Receptor type 1 to prevent the adhesion of ovarian cancer cells onto mesothelium and subsequent invasion” (Journal of Experimental & Clinical Cancer Research : CR, 2019).
Non-standard residues stand in square brackets, D forms with d. No end group written: not given here. *: point of attachment. Nle = CCCC[C@H](N)C(=O)O; For = O=C*

Experiments:
[1] = tested on: SKOV-3 cells; experiment: Adhesion kinetic of SKOV-3 cells onto Vn monitored in real time (xCELLigence); assay type: cell-based, Human; conditions: SKOV-3 pre-exposed to 100 nM peptide, 2 h, cell index, quadruplicate representative of 3 replicates
Protocol: This assay was performed using E-16-well plates and the xCELLigence Real Time Cell Analysis technology. Bottom wells were coated with serum-free medium, 5 μg mL Vn, 5 μg mL Fn, 5 μg mL Lm or 15 μg mL Coll diluted in serum-free medium prior to seeding cells (1 × 10^4 cells/well) suspended in serum-free medium. Cells that adhere to the bottom of plates cause impedance changes which are proportional to the number of cells. The impedance value of each well was automatically monitored in real-time for at least 2 h and expressed as a cell index value. The experiments were performed three times in quadruplicate.

[2] = tested on: FPR1; experiment: Agonist-dependent FPR1 internalization in EOC cells (confocal microscopy); assay type: cell-based, human; conditions: primary EOC cells, 10 nM fluorescent peptide, 30 min at 37 °C
Protocol: Cells (2 × 10^4/sample) were seeded on glass coverslips and cultured for 24 h in growth medium. Then, slides were washed with PBS, fixed with 2.5% formaldehyde in PBS for 10 min at 4 °C and incubated for 1 h at 4 °C with 2 μg/mL R4 anti-uPAR mAb or 1:100 rabbit anti-FPR1 Ab (#113531Ab, Abcam). Then, 1:700 goat Alexa Fluor 488 anti-rabbit IgG, or rabbit Alexa Fluor 488-conjugated F(ab’)2 fragment of anti-mouse IgG (Molecular Probes) were applied to slides at 23 °C for 40 min. Nuclear staining was performed with 4-6-diamidino-2-phenylindole dye (DAPI). To analyze agonist-dependent FPR1 internalization, cells grown on glass slides were exposed to 10 nM FITC-fMLF or 10 nM FITC-RI-3 diluted in serum-free DMEM for 30 min at 37 °C as described. After extensive washing with PBS, coverslips were mounted using 20% (w/v) mowiol, visualized with the 510 META-LSM confocal microscope (Carl Zeiss).

[3] = tested on: FPR1; experiment: Ligand binding assay with FITC-RI-3 on primary EOC cells; parameters: species or system human; conditions: for prevention of FITC-RI-3 binding by unlabeled peptide: primary EOC cells, 100 nM peptide pre-incubated 60 min at 4 °C, then 10 nM FITC-RI-3 60 min at 4 °C, three experiments
Protocol: EOC cells were pre-incubated with diluents or the indicated unlabeled peptides for 60 min at 4 °C (to avoid internalization), extensively rinsed with phosphate buffer saline (PBS), exposed to 10 nM FITC-RI-3 diluted in PBS, for additional 60 min at 4 °C and again rinsed with PBS. Quantification of cell associated fluorescence was assessed by reading cells with the fluorescence plate reader Victor 3. The experiments were performed three times in duplicate.

[4] = tested on: cell migration; conditions: FITC-RI-3, compared with non-fluorescent peptide; ref [38]; cited from earlier work
Source text: In order to obtain primary cultures of EOC cells, representative fragments of tissue samples were fragmented and cells recovered, as described in the Methods. By enzymatic digestion of a HGSC tissue sample (patient #5), a primary cell culture expressing high levels of both uPAR and FPR1 on cell surface as shown by IHC, was obtained (Figs. 4 and 5a). Subsequent sub-cloning of isolated cell clusters (Fig. 5b) followed by five passages allowed us to obtain an adherent, homogeneous, CD326 positive cell population. These EOC cells express a considerable amount of both uPAR and FPR1 as shown by West ...

[5] = tested on: SKOV-3 cells; experiment: Adhesion of SKOV-3 cells onto extracellular matrix proteins (24-well plates, cell counting); assay type: cell-based, Human; conditions: SKOV-3 pre-incubated with 100 nM peptide 30 min at 37 °C, 2 h; for cell adhesion onto Coll, Fn or Lm after desensitization: collagen, fibronectin, laminin; for cell adhesion onto Vn after desensitization: vitronectin, means ± SD of three independent experiments
Protocol: Adhesion assays were performed using 24 multi-well plates coated with 1% BSA, 5 μg mL vitronectin (Vn), 5 μg mL fibronectin (Fn), 5 μg mL laminin (Lm) or 15 μg mL collagen (Coll) diluted in serum-free medium. Sub-confluent cells were harvested by a mild trypsinization, incubated with 10% FBS / DMEM for 1 h at 37 °C, 5% CO2, acid treated with a buffer containing 50 mM glycin-HC1, 0.1 M NaCl, pH 3 for 4 min at 22 °C, to remove receptor-bound ligands, and counted. Viable cells (2 × 10^5 cells per well) were plated in serum-free medium, in the absence or presence of 2 μg/mL R3 mAb recognizing the DI uPAR domain, 2 μg/mL399 anti-uPAR (American Diagnostica), 2 μg/mL anti-uPAR84-95 (PRIMM), 2 μg/mL anti-α-tubulin (Cell Signaling) Abs or 10 nM RI-3, and allowed to adhere for 2 h at 37 °C, 5% CO2. […] At the end of the assay, adherent cells were removed with 0.05% trypsin, and counted. The number of adherent cells was expressed as a percentage of the basal cell adhesion (CTRL). The experiments were performed at least three times in triplicate.

[6] = tested on: FPR1; conditions: 100 nM peptide, 30 min at 37 °C; ref [37], [38]; cited from earlier work
[7] = tested on: EOC cells; experiment: EOC cell adhesion to and crossing of mesothelial cell monolayers (summary statement); assay type: cell-based, human; conditions: EOC cells exposed to RI-3 or desensitized with an excess of SRSRY
Protocol: HPMCs (1 × 10^5 cells/well) suspended in growth medium, were seeded in 24-well plates and allowed to adhere for about 20 h until they form a confluent monolayer, prior to seeding GFP-tagged EOC cells suspended in growth medium plus diluents or 10 nM RI-3. At the indicated times, plates were accurately washed with PBS and cell-associated fluorescence was assessed by a fluorescence plate reader a fluorescence plate reader (Victor 3, Perkin Elmer), using 485 nm excitation and 535 nm emission filters. The experiments were performed three times in triplicate.
HPMCs (5 × 10^3 cells/well) suspended in growth medium, were seeded in E-16-well plates and allow to adhere for 18–20 h until they form a confluent monolayer, prior to seeding EOC cells (2 × 10^4 cells/well) in growth medium plus/minus 10 nM RI-3. When HPMCs are challenged with invading cells, there is a drop in electrical resistance within 2–4 h which is monitored in real-time as the Cell Index changes due to the rupture of mesothelium. The experiments were performed three times in quadruplicate.

[8] = tested on: cell migration and ECM attachment; conditions: independently of the uPA catalytic activity; ref [14], [24]–[26]; cited from earlier work
Source text: Ovarian cancer cells detach from the primary tumor and float in the ascitic fluid as single cells or multicellular, chemo-resistant spheroids. Then, floating cancer cells must resist anoikis triggered by lack of attachment to the mesothelium to evade clearance through the peritoneal lymphatics.

[9] = tested on: vitronectin receptor; parameters: method as in PMID 15866865, PMID 20880257; conditions: inside-out mechanism involving PKC, AKT and MAPK; ref [26], [28]; cited from earlier work

| Substance | adhesion onto Vn in real time after desensitization [1] | FPR1 internalization [2] | cell adhesion onto Coll, Fn or Lm after desensitization [5] | cell adhesion onto Vn after desensitization [5] | prevention of FITC-RI-3 binding by unlabeled peptide [3] | availability of FPR1 on cell surface after desensitization [6] | regulation of cell migration and ECM attachment [8] | FPR1 interaction activating the vitronectin receptor [9] | also measured |
| --- | --- | --- | --- | --- | --- | --- | --- | --- | --- |
| ARARY [control peptide ARARY] | ineffective |  |  |  |  |  |  |  |  |
| Ac-(D)-Tyr-(D)-Arg-Aib-(D)-Arg-Ahx-Lys (N^ɛ-FITC)-NH2 [FITC-RI-3, fluorescein-conjugate of RI-3] |  | little or no internalization |  |  |  |  |  |  | binding of FITC-RI-3 to EOC cell surface ([3]; primary EOC cells (patient #5), 10 nM FITC-RI-3 in PBS, 60 min at 4 °C, fluorescence): specific, saturable RI-3 uptake on EOC cell surface; FPR1 binding and inhibition of cell migration [4]: binding FPR1 and inhibiting cell migration like the non-fluorescent peptide |
| For-[Nle]LF[Nle]YK [FITC-fMLF, fluorescein conjugate hexapeptide Formyl-Nle-Leu-Phe-Nle-Tyr-Lys, reference compound] |  | caused FPR1 internalization |  |  |  |  |  |  |  |
| N-Formyl-L-methionyl-L-leucyl-L-phenylalanine [fMLF] | abrogates cell capability to adhere onto Vn |  | not onto Coll, Fn or Lm | lose the ability to adhere onto Vn | prevented | unavailability of FPR1 on cell surface |  |  |  |
| Ser-Arg-Ser-Arg-Tyr [SRSRY, synthetic shorter pentapeptide uPAR88–92] | abrogates cell capability to adhere onto Vn |  | not onto Coll, Fn or Lm | lose the ability to adhere onto Vn | prevented | unavailability of FPR1 on cell surface | potent regulators of cell migration and ECM attachment | internalizes and activates the vitronectin receptor | ability to cross mesothelial cell monolayers (abstract) [7]: losing the ability to cross them |
| uPAR84–95: The domain boundary between DI-DII (uPAR84–95 sequence) (AVTYSRSRYLEC; UniProt Q03405 106-117, looked up, fragment) |  |  |  |  |  |  | potent regulators of cell migration and ECM attachment | internalizes and activates the vitronectin receptor |  |
